Tests used:
IFN-γ = experiment: PHA-stimulated IFN-γ release in blood of patients treated with subcutaneous lisuride, ELISA of supernatant; type: in vivo, Patienten
Procedure: (§1) Wir untersuchten die mitogen-induzierte Zytokinfreisetzung von 18 Patienten, die wegen M. Parkinson (n=13) oder Dystonie (n=5) mit subkutanem Lisurid behandelt wurden. 18 Patienten wurden mit 11 gesunden altersgleichen Kontrollen verglichen. Nach mitogener Stimulation mit 50 µl Phythämagglutinin (PHA) (5 µg/ml) über 24 h (TNF-α) bzw. 72h (IFN-γ) wurden TNF-α und IFN-γ im Überstand mit einem Elisa Assay (Gallati 1987) bestimmt: Da die Daten nicht normal verteilt sind, wurde der Mann-Whitney-Test zur Analyse der Gruppenmittelwerte gerechnet. Es fanden sich folgende Ergebnisse:
(§2) Es wurde dieselbe Lisurid-Gruppe (n=18) wie o.a. mit zwei Gruppen gesunder Freiwilliger verglichen: Einer Gruppe junger (Alter unter 50 Jahre) und mit einer Gruppe älterer Gesunder (Alter über 65 Jahre). Die Zytokinmessung und statistische Auswertung erfolgte wie oben erwähnt. […] Dies legt den Schluß nahe, daß die alterskorreliert abnehmende IFN-γ und TNF-α Produktion durch dopaminerge Therapie antagonisiert werden kann.
(§3) Den Daten ist zu entnehmen, daß durch die Behandlung mit Lisurid nach Stimulation eine vermehrte Freisetzung von IFN-γ und TNF-α erfolgt. Die Freisetzung der Cytokine ist erst in vitro in einer Kurzzeit-Kultur des Vollblutes entstanden. In der Kontrollgruppe ohne PHA Zugabe ließ sich kein IFN-γ nachweisen. […]

TNF-α = experiment: PHA-stimulated TNF-α release in blood of patients treated with subcutaneous lisuride, ELISA of supernatant; type: in vivo, Patienten
Procedure: as §1, §2, §3

Zytokin-Freisetzung = experiment: In vitro cytokine release in whole-blood assays co-incubated with lisuride and PHA; type: cell-based, gesunden jungen Freiwilligen; details: whole blood of 10 healthy young volunteers; without lisuride vs low, therapeutic and toxic lisuride concentration, together with PHA
Procedure: as §1
(§4) Von 10 gesunden jungen Freiwilligen wurden Vollblut-Assays (s.o.) mit 4 verschiedenen Konzentrationen von Lisurid zusammen mit dem Stimulans (PHA) inkubiert. […] Dies läßt vermuten, daß es sich bei den Patientendaten nicht um kurzzeitige Effekte der Substanz auf die immunkompetenten Zellen (vor allem T-Lymphozyten und NK-Zellen) handelt. Vielmehr werden über Rezeptor/postrezeptorische Mechanismen Effekte auf die Freisetzung und/oder Synthese von IFN-γ und anderen Faktoren vermittelt. Auch ein direkter oder indirekter Effekt auf das Genom ist möglich. Für die therapeutische Anwendung erwünscht ist die beobachtete Anreicherung von Dopaminagonisten in den Membranen von weißen Blutzellen, wie sie im Falle von Lisurid durch die UV-Fluoreszenz dieses Moleküls nachweisbar ist.

[1] = test system: Membranen von weißen Blutzellen; experiment: Accumulation in membranes of white blood cells, detected by UV fluorescence; details: UV fluorescence of the molecule
Text: as §4

Tumoren = experiment: Two-year treatment of rodents: tumour frequency and severity, survival; type: in vivo, Mäusen und Ratten; details: male and female mice and rats, various doses over 2 years; for Häufigkeit und Schwere von verschiedenen Tumoren: partly dose-dependent, leukaemias, lymphomas, tumours of mammae, pituitary, ovaries
Text: In vivo-Untersuchungen an Nager-Gruppen von männlichen und weiblichen Mäusen und Ratten wurden mit verschiedenen Dosen von Lisurid und Tergurid über 2 Jahre behandelt. […] Dies läßt eine therapeutisch erwünschte lokale Freisetzung dieser Faktoren bei niederer Dosierung von Dopaminagonisten erwarten, die erst bei excessiver Dosierung zur Ausschwemmung ins Blut gelangt und damit die Nebenwirkung einer direkten IFN-γ-Anwendung bewirkt.

[2] = Six-month continuous s.c. infusion at extremely high dose in monkeys; type: in vivo, Affen; details: monkey, 1 mg/kg/Tag s.c. infused continuously over 6 months (10-fold maximal human dose)
[3] = lisuride group (n=18, median age 61) vs young healthy group (under 50 years) and older healthy group (over 65 years)

Compound | IFN-γ Produktion nach mitogener Stimulation (IFN-γ; [3]) | IFN-γ Freisetzung nach PHA-Stimulation (IFN-γ; lisuride-treated patients (n=18, M. Parkinson or Dystonie) vs 11 healthy age-matched controls, PHA 72 h, Mann-Whitney p=0.039) | α-TNF Produktion nach mitogener Stimulation (TNF-α; [3]) | TNF-α Freisetzung (TNF-α; lisuride-treated patients (n=18) vs 11 healthy age-matched controls, PHA 24 h, Mann-Whitney p=0.055) | Zytokin-Freisetzung bei Koinkubation mit Lisurid (Zytokin-Freisetzung) | Anreicherung in den Membranen von weißen Blutzellen [1] | Anteil überlebender Tiere (Tumoren) | Häufigkeit und Schwere von verschiedenen Tumoren (Tumoren) | Befunde bei extrem hoher parenteraler Applikation [2]
CCN(CC)C(=O)NC1C=C2c3cccc4[nH]cc(c34)CC2N(C)C1 (centres unmarked) [Lisurid] | signifikant erhöht | signifikant erhöht | signifikant erhöht | deutlich erhöht | keine Unterschiede | nachweisbar | signifikante Erhöhung | signifikante Reduktion | wie sie für eine Überproduktion oder Freisetzung von IFN-γ und vergleichbarer Substanzen typisch sind
CCN(CC)C(=O)N[C@H]1C[C@@H]2c3cccc4[nH]cc(c34)C[C@H]2N(C)C1 [Tergurid] | – | – | – | – | – | – | signifikante Erhöhung | signifikante Reduktion | –

— patent publication EP0664704B1, “USE OF DOPAMINE AGONISTS TO ACTIVATE GAMMA-[…]” (SCHERING AKTIENGESELLSCHAFT, priority 1992, dated 1994)
